Activity calls are given as the source filed them. The rule behind the calls is not given here.
Columns and labels:
Mu-type opioid receptor [1] = target: T1, Mu-type opioid receptor (Mus musculus, UniProt P42866); assay: Partial agonist activity at mouse mu opioid receptor expressed in CHO cell membranes incubated for 1.5 hrs by [35S]GTPgammaS binding based liquid scintillation counting method
Mus musculus [2] = assay: Antinociceptive activity against Swiss Webster mouse model assessed as increase in tail withdrawal latency from warm water at 10 mg/kg, sc incubated for 5 mins followed by morphine addition and measured after 20 mins by warm water tail immersion assay; assay type: functional, organism-based
[3] = target: T2, Kappa-type opioid receptor (Mus musculus, UniProt P33534)
Description: Displacement of [3H]-diprenorphine from mouse kappa opioid receptor expressed in CHO cell membranes assessed as inhibition constant incubated for 1.5 hrs by competitive binding assay

Mus musculus [4] = assay: Antinociceptive activity against Swiss Webster mouse model assessed as increase in tail withdrawal latency from warm water by measuring maximum possible effect at 10 mg/kg, sc measured after 20 min by warm water tail immersion assay; assay type: functional, organism-based
Mu-type opioid receptor [5] = target: T1, Mu-type opioid receptor
[6] = target: T3, Delta-type opioid receptor (Homo sapiens, UniProt P41143)
Description: Displacement of [3H]-diprenorphine from human delta opioid receptor expressed in CHO cell membranes assessed as inhibition constant incubated for 1.5 hrs by competitive binding assay

[7] = Solubility of the compound in DMSO; assay type: physicochemical
[8] = target: T3, Delta-type opioid receptor; assay: biochemical
Description: Antagonist activity against human delta opioid receptor expressed in CHO cell membrane assessed as reduction in SNC80 induced [35S]GTPgammaS binding incubated for 1.5 hrs by liquid scintillation counting method

[9] = target: T2, Kappa-type opioid receptor; assay: biochemical
Description: Antagonist activity at mouse kappa opioid receptor expressed in CHO cell membranes assessed as reduction in U50,488H induced [35S]GTPgammaS binding incubated for 1.5 hrs by liquid scintillation counting method

Mus musculus [10] = assay: Anti-addiction activity in morphine pelleted Swiss Webster mouse assessed as wet dog shakes at 5 mg/kg, sc measured after 72 hrs; assay type: functional, organism-based
Mus musculus [11] = assay: Anti-addiction activity in morphine pelleted Swiss Webster mouse assessed as escape jumps at 5 mg/kg, sc measured after 72 hrs; assay type: functional, organism-based
Mus musculus [12] = assay: Anti-addiction activity in morphine pelleted Swiss Webster mouse assessed as paw tremors at 5 mg/kg, sc measured after 72 hrs; assay type: functional, organism-based

T3 sequence (P41143 whole entry): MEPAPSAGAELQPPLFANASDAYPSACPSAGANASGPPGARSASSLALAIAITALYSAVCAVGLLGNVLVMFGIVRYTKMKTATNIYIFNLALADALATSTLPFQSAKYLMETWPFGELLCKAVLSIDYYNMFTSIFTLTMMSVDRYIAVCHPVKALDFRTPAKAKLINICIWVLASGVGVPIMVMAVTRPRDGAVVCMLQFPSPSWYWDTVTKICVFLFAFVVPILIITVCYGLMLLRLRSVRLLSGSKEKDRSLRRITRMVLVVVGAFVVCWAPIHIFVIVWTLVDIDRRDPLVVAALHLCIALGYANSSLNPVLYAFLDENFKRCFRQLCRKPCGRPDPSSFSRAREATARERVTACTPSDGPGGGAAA
T2 sequence (P33534 whole entry): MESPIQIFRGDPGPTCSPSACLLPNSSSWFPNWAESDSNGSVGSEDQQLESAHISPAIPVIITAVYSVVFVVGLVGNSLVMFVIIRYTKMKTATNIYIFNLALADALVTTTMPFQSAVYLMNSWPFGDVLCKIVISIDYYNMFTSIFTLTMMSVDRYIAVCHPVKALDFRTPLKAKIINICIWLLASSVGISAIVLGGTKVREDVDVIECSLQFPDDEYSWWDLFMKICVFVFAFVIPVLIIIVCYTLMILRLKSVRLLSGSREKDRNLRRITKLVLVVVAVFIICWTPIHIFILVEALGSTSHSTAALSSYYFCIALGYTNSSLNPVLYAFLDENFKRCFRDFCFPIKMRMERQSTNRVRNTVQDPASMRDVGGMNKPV
T1 sequence (P42866 whole entry): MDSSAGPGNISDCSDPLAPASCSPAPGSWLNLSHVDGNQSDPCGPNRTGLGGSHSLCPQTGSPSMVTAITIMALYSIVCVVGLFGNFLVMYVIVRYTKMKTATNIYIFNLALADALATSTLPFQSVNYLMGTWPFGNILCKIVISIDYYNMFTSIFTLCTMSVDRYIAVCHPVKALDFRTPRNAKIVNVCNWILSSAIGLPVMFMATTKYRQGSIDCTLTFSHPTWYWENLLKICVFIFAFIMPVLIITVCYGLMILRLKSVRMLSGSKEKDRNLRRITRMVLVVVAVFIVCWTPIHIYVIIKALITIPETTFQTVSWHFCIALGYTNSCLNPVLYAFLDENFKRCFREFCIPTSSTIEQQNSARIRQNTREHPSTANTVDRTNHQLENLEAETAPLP

SMILES	EC50 (Mu-type opioid receptor [1]) [nM]	Activity (Mus musculus [2])	Ki [3] [nM]	Activity (Mus musculus [4])	Ki (Mu-type opioid receptor [5]) [nM]	Ki [6] [nM]	solubility [7]	EC50 [8] [nM]	EC50 [9] [nM]	Activity (Mus musculus [10])	Activity (Mus musculus [11])	Activity (Mus musculus [12])
O=C(CCc1ccc[nH]1)N[C@H]1CC[C@@]2(O)[C@H]3Cc4ccc(O)c5c4[C@@]2(CCN3CC2CC2)[C@H]1O5	3.79	inactive	0.54	inactive	0.58	7.58	–	–	–	–	–	–
O=C(Cc1ccc[nH]1)N[C@H]1CC[C@@]2(O)[C@H]3Cc4ccc(O)c5c4[C@@]2(CCN3CC2CC2)[C@H]1O5	4.18	inactive	2.88	inactive	0.46	3.85	–	–	–	–	–	–
O=C(CCc1cc[nH]c1)N[C@H]1CC[C@@]2(O)[C@H]3Cc4ccc(O)c5c4[C@@]2(CCN3CC2CC2)[C@H]1O5	3.86	Active	0.59	inactive	0.7	8.62	Insoluble	–	–	–	–	–
O=C(N[C@H]1CC[C@@]2(O)[C@H]3Cc4ccc(O)c5c4[C@@]2(CCN3CC2CC2)[C@H]1O5)c1ccc[nH]1	–	Active	–	inactive	–	–	–	–	–	–	–	–
O=C(N[C@@H]1CC[C@@]2(O)[C@H]3Cc4ccc(O)c5c4[C@@]2(CCN3CC2CC2)[C@H]1O5)c1ccoc1	35	–	29.4	Active	8.47	1980	–	–	–	–	–	–
O=C(Cc1ccco1)N[C@@H]1CC[C@@]2(O)[C@H]3Cc4ccc(O)c5c4[C@@]2(CCN3CC2CC2)[C@H]1O5	0.97	Active	3.38	inactive	0.23	45.6	–	42.3	13.3	–	–	–
O=C(CCc1ccsc1)N[C@H]1CC[C@@]2(O)[C@H]3Cc4ccc(O)c5c4[C@@]2(CCN3CC2CC2)[C@H]1O5	–	inactive	–	inactive	–	–	–	–	–	–	–	–
O=C(N[C@H]1CC[C@@]2(O)[C@H]3Cc4ccc(O)c5c4[C@@]2(CCN3CC2CC2)[C@H]1O5)c1ccco1	9.49	inactive	1.97	inactive	0.53	33.3	–	–	–	–	–	–
O=C(CCc1ccco1)N[C@@H]1CC[C@@]2(O)[C@H]3Cc4ccc(O)c5c4[C@@]2(CCN3CC2CC2)[C@H]1O5	–	inactive	–	inactive	–	–	–	–	–	–	–	–
O=C(CCc1ccc[nH]1)N[C@@H]1CC[C@@]2(O)[C@H]3Cc4ccc(O)c5c4[C@@]2(CCN3CC2CC2)[C@H]1O5	1.22	–	1.25	Active	0.52	36.7	–	–	–	–	–	–
O=C(Cc1cc[nH]c1)N[C@@H]1CC[C@@]2(O)[C@H]3Cc4ccc(O)c5c4[C@@]2(CCN3CC2CC2)[C@H]1O5	1.18	inactive	4.19	inactive	0.28	37.8	–	–	–	–	–	–
O=C(Cc1ccc[nH]1)N[C@@H]1CC[C@@]2(O)[C@H]3Cc4ccc(O)c5c4[C@@]2(CCN3CC2CC2)[C@H]1O5	0.8	–	1.35	Active	0.16	24.3	–	–	–	–	–	–
O=C(N[C@H]1CC[C@@]2(O)[C@H]3Cc4ccc(O)c5c4[C@@]2(CCN3CC2CC2)[C@H]1O5)c1ccsc1	–	Active	–	inactive	–	–	–	–	–	Active	Active	–
O=C(Cc1ccsc1)N[C@H]1CC[C@@]2(O)[C@H]3Cc4ccc(O)c5c4[C@@]2(CCN3CC2CC2)[C@H]1O5	1.21	inactive	0.65	inactive	0.23	39.4	–	–	–	–	–	–
O=C(Cc1cccs1)N[C@H]1CC[C@@]2(O)[C@H]3Cc4ccc(O)c5c4[C@@]2(CCN3CC2CC2)[C@H]1O5	–	inactive	–	inactive	–	–	–	–	–	–	–	–
O=C(Cc1ccsc1)N[C@@H]1CC[C@@]2(O)[C@H]3Cc4ccc(O)c5c4[C@@]2(CCN3CC2CC2)[C@H]1O5	3.24	inactive	1.31	inactive	0.2	36.1	–	–	–	–	–	–
O=C(N[C@@H]1CC[C@@]2(O)[C@H]3Cc4ccc(O)c5c4[C@@]2(CCN3CC2CC2)[C@H]1O5)c1ccc[nH]1	–	inactive	–	inactive	–	–	–	–	–	–	–	–
O=C(N[C@@H]1CC[C@@]2(O)[C@H]3Cc4ccc(O)c5c4[C@@]2(CCN3CC2CC2)[C@H]1O5)c1cc[nH]c1	2.03	–	4.51	Active	0.36	107	–	–	–	–	–	–

SMILES	EC50 (Mu-type opioid receptor [1]) [nM]	Activity (Mus musculus [2])	Ki [3] [nM]	Activity (Mus musculus [4])	Ki (Mu-type opioid receptor [5]) [nM]	Ki [6] [nM]	solubility [7]	EC50 [8] [nM]	EC50 [9] [nM]	Activity (Mus musculus [10])	Activity (Mus musculus [11])	Activity (Mus musculus [12])
O=C(CCc1cc[nH]c1)N[C@@H]1CC[C@@]2(O)[C@H]3Cc4ccc(O)c5c4[C@@]2(CCN3CC2CC2)[C@H]1O5	1.6	inactive	2.72	inactive	0.41	67.5	–	–	–	–	–	–
O=C(N[C@H]1CC[C@@]2(O)[C@H]3Cc4ccc(O)c5c4[C@@]2(CCN3CC2CC2)[C@H]1O5)c1cc[nH]c1	2.21	inactive	2.78	inactive	1.31	40.4	–	–	–	–	–	–
O=C(CCc1ccco1)N[C@H]1CC[C@@]2(O)[C@H]3Cc4ccc(O)c5c4[C@@]2(CCN3CC2CC2)[C@H]1O5	–	inactive	–	inactive	–	–	–	–	–	–	–	–
O=C(Cc1ccoc1)N[C@H]1CC[C@@]2(O)[C@H]3Cc4ccc(O)c5c4[C@@]2(CCN3CC2CC2)[C@H]1O5	8.32	inactive	6.45	inactive	0.42	3.74	–	–	–	–	–	–
O=C(CCc1ccsc1)N[C@@H]1CC[C@@]2(O)[C@H]3Cc4ccc(O)c5c4[C@@]2(CCN3CC2CC2)[C@H]1O5	–	–	–	Active	–	–	–	–	–	–	–	–
O=C(N[C@H]1CC[C@@]2(O)[C@H]3Cc4ccc(O)c5c4[C@@]2(CCN3CC2CC2)[C@H]1O5)c1cccs1	–	Active	–	inactive	–	–	–	–	–	Active	Active	Active
O=C(N[C@@H]1CC[C@@]2(O)[C@H]3Cc4ccc(O)c5c4[C@@]2(CCN3CC2CC2)[C@H]1O5)c1cccs1	–	Active	–	inactive	–	–	–	–	–	–	–	–
O=C(CCc1cccs1)N[C@H]1CC[C@@]2(O)[C@H]3Cc4ccc(O)c5c4[C@@]2(CCN3CC2CC2)[C@H]1O5	3.06	inactive	1.76	inactive	0.48	2.25	–	–	–	–	–	–
O=C(Cc1cccs1)N[C@@H]1CC[C@@]2(O)[C@H]3Cc4ccc(O)c5c4[C@@]2(CCN3CC2CC2)[C@H]1O5	–	inactive	–	inactive	–	64.9	–	–	–	–	–	–
O=C(Cc1ccco1)N[C@H]1CC[C@@]2(O)[C@H]3Cc4ccc(O)c5c4[C@@]2(CCN3CC2CC2)[C@H]1O5	2.74	Active	6.67	inactive	0.59	4.61	–	6.2	85.4	–	–	–
O=C(Cc1ccoc1)N[C@@H]1CC[C@@]2(O)[C@H]3Cc4ccc(O)c5c4[C@@]2(CCN3CC2CC2)[C@H]1O5	0.91	inactive	3.68	inactive	0.22	73	–	–	–	–	–	–
O=C(N[C@H]1CC[C@@]2(O)[C@H]3Cc4ccc(O)c5c4[C@@]2(CCN3CC2CC2)[C@H]1O5)c1ccoc1	7.63	–	2.14	Active	0.5	28.6	–	–	–	–	–	–
O=C(CCc1ccoc1)N[C@@H]1CC[C@@]2(O)[C@H]3Cc4ccc(O)c5c4[C@@]2(CCN3CC2CC2)[C@H]1O5	0.63	inactive	–	inactive	–	–	–	–	–	–	–	–
O=C(CCc1ccoc1)N[C@H]1CC[C@@]2(O)[C@H]3Cc4ccc(O)c5c4[C@@]2(CCN3CC2CC2)[C@H]1O5	2.31	inactive	–	inactive	–	–	–	–	–	–	–	–
O=C(N[C@@H]1CC[C@@]2(O)[C@H]3Cc4ccc(O)c5c4[C@@]2(CCN3CC2CC2)[C@H]1O5)c1ccsc1	–	Active	–	inactive	–	–	–	–	–	–	–	–
O=C(N[C@@H]1CC[C@@]2(O)[C@H]3Cc4ccc(O)c5c4[C@@]2(CCN3CC2CC2)[C@H]1O5)c1ccco1	0.98	Active	1.29	inactive	0.3	84.7	–	35.5	6.3	–	–	–
O=C(Cc1cc[nH]c1)N[C@H]1CC[C@@]2(O)[C@H]3Cc4ccc(O)c5c4[C@@]2(CCN3CC2CC2)[C@H]1O5	51.4	inactive	19	inactive	3.62	14.4	–	–	–	–	–	–
O=C(CCc1cccs1)N[C@@H]1CC[C@@]2(O)[C@H]3Cc4ccc(O)c5c4[C@@]2(CCN3CC2CC2)[C@H]1O5	–	–	–	Active	–	–	–	–	–	–	–	–
